From US5760188A, “Marker for neurotensin receptor” (Martin R&F Inc., priority 1996, dated 1998) come the findings set out here.

Series [1] in a line: Toxicity (statement).
Series [2] can be described thus: Stability / shelf life. The note with it: protected from light and maintained at 4° C. The format is physicochemical.
Series [3] in a line: Solubility. Format: physicochemical. The note with it: distilled water or aqueous buffer.

`CC[C@H](C)[C@H](NC(=O)[C@H](Cc1ccc(O)cc1)NC(=O)[C@@H]1CCCN1C(=O)[C@H](CCCNC(=N)N)NC(=O)[C@H](CCCNC(=N)N)NC(=O)[C@@H]1CCCN1C(=O)[C@H](CCCCN)NC(=O)[C@H](CC(N)=O)NC(=O)[C@H](CCC(=O)O)NC(=O)[C@H](Cc1ccc(O)cc1)NC(=O)[C@H](CC(C)C)NC(=O)[C@H](CCC(=O)O)NC(=S)Nc1ccc2c(c1)C(=O)OC21c2ccc(O)cc2Oc2cc(O)ccc21)C(=O)N[C@@H](CC(C)C)C(=O)O` [N-FTC-[Glu^1]NT, N-fluoresceyl thiocarbamyl-[Glu^1] neurotensin]: the toxicity in series [1] is on record as 100% non-toxic. Also, in series [2], the stability entry is given as “stable”. For the same compound, the solubility result in series [3] is reported as “freely soluble”.
